Inhibition and IC50 data for 9 molecules are collected here from US9771341B2, “Piperazine carbamates and methods of making and using same” (Abide Therapeutics, Inc., priority 2015, dated 2017).

By inhibition is commonly meant how much of the control response was suppressed. Usually IC50 stands for the point on the concentration scale where inhibition reaches its midpoint.

Experiment [1] addresses T1, FAAH (Mus musculus, UniProt O08914).
T1 construct: Proteomes (mouse brain membrane fraction or cell lysates); from tissue; host or cells: mouse brain membrane fraction (or unspecified cell lysates)
T1 sequence (O08914 1-579): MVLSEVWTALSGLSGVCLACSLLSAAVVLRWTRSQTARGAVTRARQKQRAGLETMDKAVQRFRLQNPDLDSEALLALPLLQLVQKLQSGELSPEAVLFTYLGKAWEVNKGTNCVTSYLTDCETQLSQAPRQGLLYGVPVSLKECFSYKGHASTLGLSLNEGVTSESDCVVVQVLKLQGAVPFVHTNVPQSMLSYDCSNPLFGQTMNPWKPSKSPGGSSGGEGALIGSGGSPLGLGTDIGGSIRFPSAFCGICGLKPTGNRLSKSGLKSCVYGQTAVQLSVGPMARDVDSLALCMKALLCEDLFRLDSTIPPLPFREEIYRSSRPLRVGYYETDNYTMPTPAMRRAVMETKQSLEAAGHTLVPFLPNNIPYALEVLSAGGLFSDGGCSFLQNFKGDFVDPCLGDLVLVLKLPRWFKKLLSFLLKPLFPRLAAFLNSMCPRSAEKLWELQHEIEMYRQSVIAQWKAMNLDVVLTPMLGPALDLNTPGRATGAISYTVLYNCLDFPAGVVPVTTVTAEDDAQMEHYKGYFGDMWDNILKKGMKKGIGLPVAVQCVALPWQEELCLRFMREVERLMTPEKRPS
Nature of the experiment: Mouse brain proteomes from inhibitor treated mice, FAAH. The format is in vivo. As to conditions: 5 mg/kg oral gavage, C57Bl/6J mice, brain proteome 4 h after administration. The method, then:
(§1) Preparation of Mouse Brain Proteomes from Inhibitor Treated Mice.
Inhibitors were administered to wild-type C57Bl/6J by oral gavage in a vehicle of polyethylene glycol. Each animal was sacrificed 4 h following administration and brain proteomes were prepared and analyzed according to previously established methods (See Niphakis, M. J., et al. (2011) ACS Chem. Neurosci. and Long, J. Z., et al. Nat. Chem. Biol. 5:37-44)

For experiment [2], the target named is T2, ABHD6 (Mus musculus, UniProt Q8R2Y0).
T2 construct: Proteomes (mouse brain membrane fraction or cell lysates); from tissue; host or cells: mouse brain membrane fraction (or unspecified cell lysates)
T2 sequence (Q8R2Y0 1-336): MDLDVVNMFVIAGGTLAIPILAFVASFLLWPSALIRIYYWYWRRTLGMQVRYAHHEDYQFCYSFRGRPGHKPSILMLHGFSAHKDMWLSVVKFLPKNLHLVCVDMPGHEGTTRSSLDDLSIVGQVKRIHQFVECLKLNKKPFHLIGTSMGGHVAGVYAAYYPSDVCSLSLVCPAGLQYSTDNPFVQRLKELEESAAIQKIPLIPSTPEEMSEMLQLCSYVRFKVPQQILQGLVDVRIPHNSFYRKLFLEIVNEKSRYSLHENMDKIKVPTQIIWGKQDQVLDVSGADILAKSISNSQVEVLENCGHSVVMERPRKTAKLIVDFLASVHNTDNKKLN
Nature of the experiment: Mouse brain proteomes from inhibitor treated mice, ABHD6. The experiment is classed as in vivo. As to conditions: 5 mg/kg oral gavage, C57Bl/6J mice, brain proteome 4 h after administration. The method, then: as §1
(§2) Inhibitors were administered to wild-type C57Bl/6J by oral gavage in a vehicle of polyethylene glycol.

For experiment [3], the target named is T1, FAAH. Nature of the experiment: In vitro competitive activity-based protein profiling (mouse), FAAH. As to conditions: for inhibition at 1 µM: mouse proteome, in vitro; for IC50: mouse brain membrane fraction or cell lysates, 30 min preincubation at 37° C, FP-Rh probe. The experiment is classed as biochemical. The gist of the method:
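Competitive ABPP: inhibitor exposure (30 min, 37° C) of mouse brain membrane or lysate proteome at 1.0 mg/mL, then labelling with FP-Rh for another 30 min. Activity quantified by in-gel fluorescence of FAAH bands after SDS-PAGE.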

For experiment [4], the target named is T2, ABHD6. Nature of the experiment: In vitro competitive activity-based protein profiling (mouse), ABHD6. The format is biochemical. The following applies: for inhibition at 1 µM: mouse proteome, in vitro, read-out: % Inhibition at 1 μM ABHD6; for IC50: mouse brain membrane fraction or cell lysates, 30 min preincubation at 37° C, FP-Rh probe. The method, then: (§3) In Vitro Competitive Activity-Based Protein Profiling (Mouse).
(§4) Proteomes (mouse brain membrane fraction or cell lysates) (50 μL, 1.0 mg/mL total protein concentration) were preincubated with varying concentrations of inhibitors at 37° C. After 30 min, FP-Rh (1.0 μL, 50 μM in DMSO) was added and the mixture was incubated for another 30 min at 37° C. Reactions were quenched with SDS loading buffer (50 μL-4×) and run on SDS-PAGE.

In experiment [5] the target is T3, MAGL (Mus musculus, UniProt O35678).
T3 construct: Proteomes (mouse brain membrane fraction or cell lysates); from tissue; host or cells: mouse brain membrane fraction (or unspecified cell lysates)
T3 sequence (O35678 1-303): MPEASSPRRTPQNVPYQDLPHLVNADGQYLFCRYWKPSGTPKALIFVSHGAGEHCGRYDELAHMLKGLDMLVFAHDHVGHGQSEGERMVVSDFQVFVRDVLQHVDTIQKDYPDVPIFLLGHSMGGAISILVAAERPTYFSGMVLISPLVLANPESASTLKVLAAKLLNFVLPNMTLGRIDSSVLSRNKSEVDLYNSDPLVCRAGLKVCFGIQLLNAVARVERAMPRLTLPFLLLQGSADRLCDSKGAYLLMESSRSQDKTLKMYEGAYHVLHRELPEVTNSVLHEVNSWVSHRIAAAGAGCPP
As to the kind of experiment: In vitro competitive activity-based protein profiling (mouse), MAGL. The experiment is classed as biochemical. As to conditions: for inhibition at 1 µM: mouse proteome, in vitro, read-out: % Inhibition at 1 μM MAGL; for IC50: mouse brain membrane fraction or cell lysates, 30 min preincubation at 37° C, FP-Rh probe. The procedure: as §3, §4

The target in experiment [6] is T3, MAGL. Nature of the experiment: Mouse brain proteomes from inhibitor treated mice, MAGL. The format is in vivo. As to conditions: 5 mg/kg oral gavage, C57Bl/6J mice, brain proteome 4 h after administration. The procedure: as §1, §2

As to `CN(C)C(=O)C1CCN(c2cc(C(F)(F)F)ccc2CN2CCN(C(=O)OC(C(F)(F)F)C(F)(F)F)CC2)CC1` [Example 35, 1,1,1,3,3,3-hexafluoropropan-2-yl 4-(2-(4-(dimethylcarbamoyl)piperidin-1-yl)-4-(trifluoromethyl)benzyl)piperazine-1-carboxylate], the inhibition at 5 mg/kg at FAAH [1] was below 25%; against ABHD6 [2] it was below 25%; against MAGL [6], above 75%. For the same molecule, the inhibition at 1 µM on FAAH [3] is below 25%; on ABHD6 [4] it was below 25%; on MAGL [5], above 75%. Besides, the 50% inhibitory concentration (IC50) is above 1000 nM at FAAH [3], above 1000 nM on ABHD6 [4] and below 100 nM at MAGL [5].
Regarding `CS(=O)(=O)N[C@@H]1CCN(c2cc(Cl)ccc2CN2CCN(C(=O)OC(C(F)(F)F)C(F)(F)F)CC2)C1` [Example 39, 1,1,1,3,3,3-hexafluoropropan-2-yl (R)-4-(4-chloro-2-(3-(methylsulfonamido)pyrrolidin-1-yl)benzyl)piperazine-1-carboxylate], the figures for the inhibition at 5 mg/kg on FAAH [1], against ABHD6 [2] and against MAGL [6] were below 25%, 25 to 75% and above 75%, respectively. Also, the inhibition at 1 µM on FAAH [3] is below 25%; at ABHD6 [4], 25 to 75%; at MAGL [5] it was above 75%. For the same molecule, the values for the concentration for half-maximal inhibition (IC50) on FAAH [3], on ABHD6 [4] and on MAGL [5] were above 1000 nM, above 1000 nM and below 100 nM, respectively.
Consider `CS(=O)(=O)N[C@H]1CCN(c2cc(Cl)ccc2CN2CCN(C(=O)OC(C(F)(F)F)C(F)(F)F)CC2)C1` [Example 40, 1,1,1,3,3,3-hexafluoropropan-2-yl (S)-4-(4-chloro-2-(3-(methylsulfonamido)pyrrolidin-1-yl)benzyl)piperazine-1-carboxylate], for which the inhibition at 5 mg/kg against FAAH [1] is below 25%; on ABHD6 [2], below 25%; on MAGL [6] it was above 75%. Moreover, the inhibition at 1 µM at FAAH [3] was below 25%; on ABHD6 [4], below 25%; on MAGL [5], above 75%. Moreover, the IC50 was above 1000 nM at FAAH [3], above 1000 nM at ABHD6 [4] and below 100 nM on MAGL [5].
As to `O=C(OC(C(F)(F)F)C(F)(F)F)N1CCN(Cc2ccc(Cl)cc2N2CC[C@@H](N3CCCC3=O)C2)CC1` [Example 41, 1,1,1,3,3,3-hexafluoropropan-2-yl (R)-4-(4-chloro-2-(2-oxo-[1,3′-bipyrrolidin]-1′-yl)benzyl)piperazine-1-carboxylate], the inhibition at 5 mg/kg at FAAH [1] is below 25%; against ABHD6 [2] it was below 25%; against MAGL [6], above 75%. Further, the inhibition at 1 µM on FAAH [3] was below 25%; on ABHD6 [4] it was 25 to 75%; on MAGL [5], above 75%. For the same molecule, the half-inhibitory concentration (IC50) on FAAH [3] was above 1000 nM; at ABHD6 [4] it was above 1000 nM; on MAGL [5], below 100 nM.
With `O=C(OC(C(F)(F)F)C(F)(F)F)N1CCN(Cc2ccc(Cl)cc2N2CC[C@H](N3CCCC3=O)C2)CC1` [Example 42, 1,1,1,3,3,3-hexafluoropropan-2-yl (S)-4-(4-chloro-2-(2-oxo-[1,3′-bipyrrolidin]-1′-yl)benzyl)piperazine-1-carboxylate], the inhibition at 5 mg/kg on FAAH [1] was below 25%; against ABHD6 [2], below 25%; at MAGL [6] it was above 75%. The results for the inhibition at 1 µM at FAAH [3], on ABHD6 [4] and at MAGL [5] were below 25%, 25 to 75% and above 75%, respectively. For the same molecule, the IC50 at FAAH [3] is above 1000 nM; on ABHD6 [4], 100 to 1000 nM; on MAGL [5], below 100 nM.
With `O=C(OC(C(F)(F)F)C(F)(F)F)N1CCN(Cc2ccc(Cl)cc2N2CC[C@@H](N3CCCCC3=O)C2)CC1` [Example 43, 1,1,1,3,3,3-hexafluoropropan-2-yl (R)-4-(4-chloro-2-(3-(2-oxopiperidin-1-yl)pyrrolidin-1-yl)benzyl)piperazine-1-carboxylate], the inhibition at 5 mg/kg against FAAH [1] was below 25%; at ABHD6 [2], below 25%; against MAGL [6] it was 25 to 75%. Moreover, the inhibition at 1 µM at FAAH [3] is below 25%; at ABHD6 [4], below 25%; at MAGL [5] it was above 75%. Also, the IC50 on FAAH [3] is above 1000 nM; on ABHD6 [4] it was above 1000 nM; at MAGL [5], below 100 nM.
For the molecule `O=C(OC(C(F)(F)F)C(F)(F)F)N1CCN(Cc2ccc(Cl)cc2N2CC[C@H](N3CCCCC3=O)C2)CC1` [Example 44, 1,1,1,3,3,3-hexafluoropropan-2-yl (S)-4-(4-chloro-2-(3-(2-oxopiperidin-1-yl)pyrrolidin-1-yl)benzyl)piperazine-1-carboxylate], the inhibition at 5 mg/kg at FAAH [1], at ABHD6 [2] and against MAGL [6] was below 25% throughout. Besides, the figures for the inhibition at 1 µM on FAAH [3], on ABHD6 [4] and at MAGL [5] were below 25%, below 25% and above 75%, respectively. In addition, the IC50 at FAAH [3] was above 1000 nM; at ABHD6 [4] it was above 1000 nM; at MAGL [5], below 100 nM.
`O=C(OC(C(F)(F)F)C(F)(F)F)N1CCN(Cc2ccc(Cl)cc2N2CC[C@@H](N3CCCS3(=O)=O)C2)CC1` [Example 45, 1,1,1,3,3,3-hexafluoropropan-2-yl (R)-4-(4-chloro-2-(3-(1,1-dioxidoisothiazolidin-2-yl)pyrrolidin-1-yl)benzyl)piperazine-1-carboxylate]: the inhibition at 5 mg/kg at FAAH [1] is below 25%; against ABHD6 [2], below 25%; at MAGL [6] it was 25 to 75%. In addition, the values for the inhibition at 1 µM on FAAH [3], at ABHD6 [4] and at MAGL [5] were below 25%, above 75% and above 75%, respectively. Moreover, the results for the IC50 at FAAH [3], on ABHD6 [4] and at MAGL [5] were above 1000 nM, 100 to 1000 nM and below 100 nM, respectively.
Consider `Cc1cccc(CN2CCN(C(=O)OC(C(F)(F)F)C(F)(F)F)CC2)c1N1CCC(NS(C)(=O)=O)CC1` [Example 51, 1,1,1,3,3,3-hexafluoropropan-2-yl 4-(3-methyl-2-(4-(methylsulfonamido)piperidin-1-yl)benzyl)piperazine-1-carboxylate], for which the inhibition at 5 mg/kg against FAAH [1] is below 25%; on ABHD6 [2] it was below 25%; against MAGL [6], above 75%. In addition, the inhibition at 1 µM on FAAH [3] was below 25%; on ABHD6 [4], below 25%; on MAGL [5], above 75%. The 50% inhibitory concentration (IC50) is above 1000 nM on FAAH [3], above 1000 nM on ABHD6 [4] and below 100 nM on MAGL [5].
